In the NIST ThermoML archive (doi:10.1016/j.jct.2016.06.034):
Numbers after ± are expanded uncertainties.

Test: osmotic coefficient (dimensionless); mn = molality of the nth substance listed, in mol/kg
Details: 308.15 K, 84.5 kPa, Liquid, Knauer Osmomat K-7000

CCCCCCCCCCn1cc[n+](C)c1.[Br-] [1-decyl-3-methylimidazolium bromide] + O
Details | osmotic coefficient
m1 = 0.01036 | 1.233 ± 0.009
m1 = 0.01532 | 1.16 ± 0.0062
m1 = 0.01539 | 1.154 ± 0.006
m1 = 0.02001 | 1.11 ± 0.0044
m1 = 0.02014 | 1.106 ± 0.0042
m1 = 0.02471 | 1.081 ± 0.0035
m1 = 0.02479 | 1.075 ± 0.0033
m1 = 0.03022 | 1.06 ± 0.0029
m1 = 0.03026 | 1.055 ± 0.0028
m1 = 0.03486 | 1.021 ± 0.0021
m1 = 0.0384 | 0.9873 ± 0.0021
m1 = 0.03983 | 0.9742 ± 0.0022
m1 = 0.04483 | 0.8983 ± 0.0041
m1 = 0.04981 | 0.8319 ± 0.0065
m1 = 0.05918 | 0.735 ± 0.01
m1 = 0.06429 | 0.687 ± 0.012
m1 = 0.06983 | 0.644 ± 0.014
m1 = 0.07967 | 0.579 ± 0.016
m1 = 0.08811 | 0.53 ± 0.018
m1 = 0.09976 | 0.48 ± 0.02
m1 = 0.1175 | 0.417 ± 0.023
